Assay [1] in a line: viability loss of HPDE-C7K cells – cell-based, fluorescence, HTS, primary screen (AID 431). The following applies: Homo sapiens. It is filed as functional.
A further assay concerns the target Cytochrome P450 2D6 (Homo sapiens, UniProt P10635).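 Further: CYP2D6 member of a cytochrome P450 panel assay.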
Assay [2] has as its target G-protein coupled receptor 55 (Homo sapiens, UniProt Q9Y2T6). As to the kind of experiment: selective activators of receptor GPR55 – imaging, U2OS cells, beta-arrestin-GFP redistribution, primary screen (AID 1961). The format is functional.
Assay [3] in a line: microbe, parasite or virus in culture. It is filed as functional. Conditions: Mycobacterium tuberculosis.
Assay [4] can be described thus: viability of PTEN-deleted HCT116 cells – cell-based, HCT116 PTEN knockout, dose response (AID 1047).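 Further: HCT116 colon tumor cells with PTEN knocked out; cells exposed to compound for 60 hours before readout; potency for loss of cell viability measured by luminescence.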 It is filed as functional.
The nature of assay [5]: HPDE-C7 pancreatic duct cell viability loss – fluorescence, HTS (AID 430). The format is functional, cell-based. Conditions: Homo sapiens.
Assay [6] addresses T1, Lysosomal acid glucosylceramidase (Homo sapiens, UniProt P04062).
T1 sequence (P04062 whole entry): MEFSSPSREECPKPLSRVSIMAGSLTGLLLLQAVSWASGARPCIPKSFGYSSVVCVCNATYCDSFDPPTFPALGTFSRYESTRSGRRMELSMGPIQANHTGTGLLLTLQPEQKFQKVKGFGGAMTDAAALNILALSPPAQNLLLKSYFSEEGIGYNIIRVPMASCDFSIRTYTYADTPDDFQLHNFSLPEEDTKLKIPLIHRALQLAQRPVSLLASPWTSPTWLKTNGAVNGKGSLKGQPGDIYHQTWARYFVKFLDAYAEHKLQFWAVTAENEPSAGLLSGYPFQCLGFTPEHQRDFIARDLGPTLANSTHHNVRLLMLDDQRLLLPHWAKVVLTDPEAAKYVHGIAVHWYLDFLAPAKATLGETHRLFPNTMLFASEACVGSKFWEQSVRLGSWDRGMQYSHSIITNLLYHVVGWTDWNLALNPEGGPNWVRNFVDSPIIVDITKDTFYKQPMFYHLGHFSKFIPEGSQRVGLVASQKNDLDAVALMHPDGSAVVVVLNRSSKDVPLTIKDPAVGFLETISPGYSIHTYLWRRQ
As to the kind of experiment: Dose response cell-based high throughput screening assay to identify enhancers of beta-glucosidase activity. [Related pubchem assays: 784 ]. The format is functional.

The nature of assay [7]: viability of HCT116 lacking mutant beta-catenin – cell-based, human colon tumor, dose response (AID 1045).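 Further: HCT116 colon tumor cells with beta catenin knocked out; cells exposed to compound for 60 hours.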 It is filed as functional.
The nature of assay [8]: viability loss in HeLa cells – cytotoxicity control for MgcRacGAP inhibitor project, dose response (AID 624300). It is filed as functional.
Another assay is described as follows: cells. It is filed as functional.
A short description of assay [9]: toxicity toward HepG2 liver cells – cell-based, plate reader, cherry-pick, antagonist series, cytotoxicity control, dose response (AID 743416). It is filed as functional.
Assay [10] addresses T2, Rac GTPase-activating protein 1 (Homo sapiens, UniProt Q9H0H5).
T2 sequence (Q9H0H5 whole entry): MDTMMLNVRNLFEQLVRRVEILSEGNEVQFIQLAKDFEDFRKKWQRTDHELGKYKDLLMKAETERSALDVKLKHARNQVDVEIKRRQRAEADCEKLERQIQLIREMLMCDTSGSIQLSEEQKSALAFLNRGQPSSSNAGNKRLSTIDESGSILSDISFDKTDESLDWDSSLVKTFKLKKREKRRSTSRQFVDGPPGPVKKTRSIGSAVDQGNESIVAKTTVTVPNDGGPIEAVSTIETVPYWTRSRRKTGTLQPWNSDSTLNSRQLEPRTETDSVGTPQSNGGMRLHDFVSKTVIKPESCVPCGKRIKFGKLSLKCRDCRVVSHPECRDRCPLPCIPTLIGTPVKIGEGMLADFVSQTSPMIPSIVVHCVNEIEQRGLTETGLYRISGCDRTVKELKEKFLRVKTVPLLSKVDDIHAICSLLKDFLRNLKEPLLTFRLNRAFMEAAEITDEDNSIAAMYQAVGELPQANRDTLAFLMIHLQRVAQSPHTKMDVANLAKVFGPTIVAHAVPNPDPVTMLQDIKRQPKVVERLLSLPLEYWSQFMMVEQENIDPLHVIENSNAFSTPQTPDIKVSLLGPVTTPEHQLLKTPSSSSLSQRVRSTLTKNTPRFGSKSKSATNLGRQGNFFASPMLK
As to the kind of experiment: blockers of MgcRacGAP-driven Rac1 GTP hydrolysis – biochemical, ADP Hunter fluorescence, primary and confirmatory, confirmation (AID 624330). The format is functional.

The nature of assay [11]: reduction of Shn3 3'UTR-driven luciferase in osteoblasts – cell-based, Clone20 osteoblasts, firefly luciferase, cherry-picked, dose response (AID 624132).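 Further: firefly luciferase luminescence from reporter carrying the Shn3 3'UTR in osteoblasts.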 The format is functional.
The nature of assay [12]: THP-1 cell cytotoxicity, dose response, cytotoxicity control for non-replicating M. tuberculosis project (AID 489025). It is filed as functional.
Assay [13] is described as follows: blockade of melanocortin 4 receptor signaling – cell-based, plate reader, cherry pick, counter-screen for LGR2 antagonist project, dose response (AID 743444).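 Further: transfected HEK 293 cells stimulated with alpha-MSH peptide; potency of inhibitors of the alpha-MSH evoked signal.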 It is filed as functional.
A short description of assay [14]: blockers of bursicon-stimulated LGR2 cAMP reporter – cell-based, HEK293, CRE-luciferase reporter, cherry pick, set 2, dose response (AID 743343).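 Further: transfected cells were stimulated with diluted bursicon conditioned medium after compound addition.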 The format is functional.
Assay [15] in a line: HepG2 cell cytotoxicity, dose response, cytotoxicity control for non-replicating M. tuberculosis project (AID 489018). The format is functional. Conditions: Mycobacterium tuberculosis.
The nature of assay [16]: non-specific 3'UTR reporter inhibition in Clone20-Shn3RL – cell-based, Renilla luciferase, cherry-picked, counter-screen for Shn3 inhibitor project, dose response (AID 624133). The format is functional. In general terms: The purpose of a counterscreen is to sort out artefacts and off-target activity.
Assay [17] is described as follows: loss of viability in HepG2 cells – cell-based, CellTiter-Glo, cherry-picked, cytotoxicity control for Shn3 inhibitor project, dose response (AID 624134). The format is functional.
Assay [18] in a line: A549 cell cytotoxicity, dose response, cytotoxicity control, plate reader, cherry-pick, antagonist series (AID 743412). It is filed as functional, cell-based.

Activity calls are given as the source filed them.

What is called EC50 is the concentration that produces a half-maximal response. By AC50 is commonly meant the midpoint of the concentration-response curve, whichever way the signal moves. In general, IC50 refers to the midpoint of a concentration-inhibition curve.

Sequence of G-protein coupled receptor 55 (Q9Y2T6 whole entry): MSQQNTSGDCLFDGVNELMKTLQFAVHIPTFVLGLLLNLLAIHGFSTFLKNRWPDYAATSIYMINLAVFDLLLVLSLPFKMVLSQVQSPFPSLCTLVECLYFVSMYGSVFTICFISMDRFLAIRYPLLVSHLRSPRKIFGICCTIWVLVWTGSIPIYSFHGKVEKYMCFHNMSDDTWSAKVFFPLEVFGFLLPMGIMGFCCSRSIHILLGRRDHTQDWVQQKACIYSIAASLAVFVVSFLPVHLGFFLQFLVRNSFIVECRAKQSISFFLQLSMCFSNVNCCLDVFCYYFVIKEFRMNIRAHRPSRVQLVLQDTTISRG
Sequence of Cytochrome P450 2D6 (P10635 whole entry): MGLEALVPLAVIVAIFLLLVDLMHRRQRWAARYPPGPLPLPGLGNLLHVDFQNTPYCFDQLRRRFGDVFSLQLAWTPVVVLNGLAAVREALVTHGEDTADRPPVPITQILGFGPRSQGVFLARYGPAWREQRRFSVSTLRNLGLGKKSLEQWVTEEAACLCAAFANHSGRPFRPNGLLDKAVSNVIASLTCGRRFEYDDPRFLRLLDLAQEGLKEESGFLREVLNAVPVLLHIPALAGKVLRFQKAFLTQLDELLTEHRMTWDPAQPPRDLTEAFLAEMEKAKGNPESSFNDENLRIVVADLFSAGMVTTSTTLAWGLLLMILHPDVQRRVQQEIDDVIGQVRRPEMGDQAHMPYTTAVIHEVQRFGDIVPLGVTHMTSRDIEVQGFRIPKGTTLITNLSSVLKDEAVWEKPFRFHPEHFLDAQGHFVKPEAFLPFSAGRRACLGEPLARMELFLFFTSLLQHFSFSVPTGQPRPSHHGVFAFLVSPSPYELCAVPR

With `FC(F)(F)c1ccc(N2CCOCC2)c(Nc2nc3ccccc3n3cnnc23)c1`, the EC50 was 5.98 µM (active) in [1]; 4.18 µM (active) in assay [2]; 13.5 µM (active) in assay [4]; 5.89 µM (active) in [5]; > 50 µM (not active) in assay [6]; 16.5 µM (active) in assay [7]. Further, the AC50 on Cytochrome P450 2D6 is 28.2 µM (inconclusive). For the same molecule, the CC50 in assay [3] is 27.4 µM (active).

For the molecule `CCn1c2ccccc2c2cc(CNCc3ccc(OC)cc3OC)ccc21`, the CC50 was 37 µM (active) in assay [8], 19.3 µM (active) in assay [3], 16.7 µM (active) in [12] and 15.6 µM (active) in assay [15]. Also, the results for the IC50 (in the assay “cells”; in [10]) were 12.8 µM (active) and 99.7 µM (active), respectively. Also, the AC50 is 13.8 µM (active) in [9]; 14.7 µM (active) in assay [11]; 32.9 µM (active) in assay [13]; 18.6 µM (active) in [14]; 14.8 µM (active) in [16]; 16.9 µM (active) in assay [17]. In [18], the AC50 was 13.6 µM (active).
